In one assay the target is T1, SMARCA4 (Homo sapiens, UniProt P51532).
T1 construct: SMARCA4-HiBiT knock-in Hela monoclonal cell (CS3023226); host or cells: HeLa monoclonal cells with heterozygous HiBiT knock-in at the endogenous SMARCA4 locus
Description: SMARCA4 HiBiT degradation assay in HeLa cells. The assay is classed as cell-based. To be noted: 18 hours, highest concentration 10 μM. As to the method: (§1) SMARCA2 HiBiT and SMARCA4 HiBiT Degradation Assay
HiBiT peptide knock-in of SMARCA2 in LgBiT expressing HEK293T cells was performed by CRISPR-mediated tagging system as described Promega. […] SMARCA2-HiBiT knock-in Hela monoclonal cell (CS302366) and SMARCA4-HiBiT knock-in Hela monoclonal cell (CS3023226) were purchased from Promega.
(§2) SMARCA2 HiBiT and SMARCA4 HiBiT Degradation Assay in HeLa Cells
Remove appropriate volume of resuspended cells from culture flask to accommodate 2500 cells/well @ 20 μL/well. […] Spin down at 1000 rpm for 5 min using tabletop centrifuge (SPINCHRON 15, Beckman).
Dispense test compounds onto plates using digital liquid dispenser (D300E, Tecan). Incubate plates in humidified tissue culture incubator @37° C. for 18 hours. […] Raw data files and compound information reports are swept into centralized data lake and deconvoluted using automated scripts designed by TetraScience, Inc. Data analysis, curve-fitting and reporting done in Dotmatics Informatics Suite using Screening Ultra module.
(In general: With HiBiT, luminescence reflects the tagged protein that the partner subunit can reach.)

In a further assay the target is T2, SMARCA2 (Homo sapiens, UniProt P51531).
T2 construct: SMARCA2-HiBiT knock-in Hela monoclonal cell (CS302366); host or cells: HeLa monoclonal cells with heterozygous HiBiT knock-in at the endogenous SMARCA2 locus
The experiment in a line: SMARCA2 HiBiT degradation assay in HeLa cells. The following applies: 18 hours, highest concentration 10 μM. The format is cell-based. As to the method:
as §1
HiBiT peptide knock-in of SMARCA2 in LgBiT expressing HEK293T cells was performed by CRISPR-mediated tagging system as described Promega. The homozygous HiBiT knock-in on c-terminus SMARCA2 was confirmed by sanger sequence. SMARCA2-HiBiT knock-in Hela monoclonal cell (CS302366) and SMARCA4-HiBiT knock-in Hela monoclonal cell (CS3023226) were purchased from Promega. The heterozygous HiBiT-knock-in was confirmed by sanger sequence in both SMARCA2-HiBiT and SMARCA4-HiBiT monoclonal cells.
as §2
Dispense 10 ul aliquot of prepared Hela-SMARCA2-HiBiT or Hela-SMARCA4-HiBiT cells (1:1 ratio of cells:Trypan Blue (#1450013, Bio-Rad)) onto cell counting slide (#145-0011, Bio-Rad) and obtain cell density and cell viability using cell counter (TC20, Bio-Rad). Remove appropriate volume of resuspended cells from culture flask to accommodate 2500 cells/well @ 20 μL/well. Transfer Hela-HiBiT cells to 50 mL conical (#430290, Corning). Spin down at 1000 rpm for 5 min using tabletop centrifuge (SPINCHRON 15, Beckman). Discard supernatant and resuspend cell pellet in modified EMEM (#30-2003, ATCC) cell culture media containing 10% FBS (F2422-500ML, Sigma), and 1× Penicillin/Streptomycin ([…]) (30-002-CI, Corning) to a cell density of 125,000 cells/mL. Dispense 20 μLof resuspended Hela-HiBit cells per well in 384-well TC treated plate (#12-565-343, Thermo Scientific) using standard cassette (#50950372, Thermo Scientific) on Multidrop Combi (#5840310, Thermo Scientific) inside laminar flow cabinet.
Compounds were dissolved in DMSO to make 10 mM stock and 3-fold series dilutions were further conducted keeping the highest concentration 10 μM. Dispense test compounds onto plates using digital liquid dispenser (D300E, Tecan). Incubate plates in humidified tissue culture incubator @37° C. for 18 hours. Add 20 μL of prepared Nano-Glo® HiBiT Lytic detection buffer (N3050, Promega) to each well of 384-well plate using small tube cassette (#24073295, Thermo Scientific) on Multidrop Combi, incubate @ RT for 30-60 min. Read plates on microplate reader (Envision 2105, PerkinElmer) using 384 well Ultra-Sensitive luminescence mode. Raw data files and compound information reports are swept into centralized data lake and deconvoluted using automated scripts designed by TetraScience, Inc. Data analysis, curve-fitting and reporting done in Dotmatics Informatics Suite using Screening Ultra module.

T1 sequence (P51532 whole entry): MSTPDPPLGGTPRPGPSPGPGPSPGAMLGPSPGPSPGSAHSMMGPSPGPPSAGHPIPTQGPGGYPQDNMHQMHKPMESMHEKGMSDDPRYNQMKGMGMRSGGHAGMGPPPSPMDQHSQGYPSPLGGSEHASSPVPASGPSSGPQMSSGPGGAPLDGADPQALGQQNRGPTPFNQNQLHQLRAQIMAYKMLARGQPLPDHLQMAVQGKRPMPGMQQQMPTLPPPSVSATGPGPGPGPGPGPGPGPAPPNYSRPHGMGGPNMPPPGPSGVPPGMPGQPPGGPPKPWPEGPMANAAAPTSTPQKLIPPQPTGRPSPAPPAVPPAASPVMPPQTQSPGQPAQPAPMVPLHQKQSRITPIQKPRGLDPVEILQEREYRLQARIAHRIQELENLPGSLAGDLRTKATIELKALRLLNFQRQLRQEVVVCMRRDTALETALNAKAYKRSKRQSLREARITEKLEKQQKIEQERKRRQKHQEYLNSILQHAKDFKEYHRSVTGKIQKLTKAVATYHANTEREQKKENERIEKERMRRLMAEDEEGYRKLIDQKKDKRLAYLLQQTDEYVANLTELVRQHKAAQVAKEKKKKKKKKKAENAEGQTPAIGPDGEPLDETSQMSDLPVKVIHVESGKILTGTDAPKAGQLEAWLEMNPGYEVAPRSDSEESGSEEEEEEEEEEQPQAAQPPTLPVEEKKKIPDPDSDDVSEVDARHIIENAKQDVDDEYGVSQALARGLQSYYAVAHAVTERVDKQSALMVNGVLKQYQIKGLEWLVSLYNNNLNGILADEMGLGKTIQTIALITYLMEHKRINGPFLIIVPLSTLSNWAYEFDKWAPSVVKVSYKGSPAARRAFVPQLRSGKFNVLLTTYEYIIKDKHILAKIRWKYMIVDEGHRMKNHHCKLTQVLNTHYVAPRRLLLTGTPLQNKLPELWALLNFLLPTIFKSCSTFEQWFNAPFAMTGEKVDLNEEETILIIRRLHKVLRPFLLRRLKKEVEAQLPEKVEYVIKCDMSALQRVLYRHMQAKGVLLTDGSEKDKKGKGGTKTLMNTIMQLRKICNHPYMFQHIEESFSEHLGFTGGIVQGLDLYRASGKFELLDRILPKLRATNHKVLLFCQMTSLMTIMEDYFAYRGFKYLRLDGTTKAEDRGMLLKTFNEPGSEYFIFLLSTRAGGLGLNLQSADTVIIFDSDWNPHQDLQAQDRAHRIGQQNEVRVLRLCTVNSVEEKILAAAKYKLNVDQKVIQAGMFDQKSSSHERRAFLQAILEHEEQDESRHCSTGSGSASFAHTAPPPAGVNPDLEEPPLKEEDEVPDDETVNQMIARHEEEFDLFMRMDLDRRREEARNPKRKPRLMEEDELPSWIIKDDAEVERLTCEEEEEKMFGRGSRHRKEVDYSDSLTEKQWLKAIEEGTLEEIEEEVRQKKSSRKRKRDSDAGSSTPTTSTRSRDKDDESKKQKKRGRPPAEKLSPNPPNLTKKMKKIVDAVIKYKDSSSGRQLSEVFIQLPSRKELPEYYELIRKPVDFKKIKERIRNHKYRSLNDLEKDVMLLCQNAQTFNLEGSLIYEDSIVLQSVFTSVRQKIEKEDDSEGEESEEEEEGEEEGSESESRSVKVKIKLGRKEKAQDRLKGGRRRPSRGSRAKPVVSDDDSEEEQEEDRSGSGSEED
T2 sequence (P51531 whole entry): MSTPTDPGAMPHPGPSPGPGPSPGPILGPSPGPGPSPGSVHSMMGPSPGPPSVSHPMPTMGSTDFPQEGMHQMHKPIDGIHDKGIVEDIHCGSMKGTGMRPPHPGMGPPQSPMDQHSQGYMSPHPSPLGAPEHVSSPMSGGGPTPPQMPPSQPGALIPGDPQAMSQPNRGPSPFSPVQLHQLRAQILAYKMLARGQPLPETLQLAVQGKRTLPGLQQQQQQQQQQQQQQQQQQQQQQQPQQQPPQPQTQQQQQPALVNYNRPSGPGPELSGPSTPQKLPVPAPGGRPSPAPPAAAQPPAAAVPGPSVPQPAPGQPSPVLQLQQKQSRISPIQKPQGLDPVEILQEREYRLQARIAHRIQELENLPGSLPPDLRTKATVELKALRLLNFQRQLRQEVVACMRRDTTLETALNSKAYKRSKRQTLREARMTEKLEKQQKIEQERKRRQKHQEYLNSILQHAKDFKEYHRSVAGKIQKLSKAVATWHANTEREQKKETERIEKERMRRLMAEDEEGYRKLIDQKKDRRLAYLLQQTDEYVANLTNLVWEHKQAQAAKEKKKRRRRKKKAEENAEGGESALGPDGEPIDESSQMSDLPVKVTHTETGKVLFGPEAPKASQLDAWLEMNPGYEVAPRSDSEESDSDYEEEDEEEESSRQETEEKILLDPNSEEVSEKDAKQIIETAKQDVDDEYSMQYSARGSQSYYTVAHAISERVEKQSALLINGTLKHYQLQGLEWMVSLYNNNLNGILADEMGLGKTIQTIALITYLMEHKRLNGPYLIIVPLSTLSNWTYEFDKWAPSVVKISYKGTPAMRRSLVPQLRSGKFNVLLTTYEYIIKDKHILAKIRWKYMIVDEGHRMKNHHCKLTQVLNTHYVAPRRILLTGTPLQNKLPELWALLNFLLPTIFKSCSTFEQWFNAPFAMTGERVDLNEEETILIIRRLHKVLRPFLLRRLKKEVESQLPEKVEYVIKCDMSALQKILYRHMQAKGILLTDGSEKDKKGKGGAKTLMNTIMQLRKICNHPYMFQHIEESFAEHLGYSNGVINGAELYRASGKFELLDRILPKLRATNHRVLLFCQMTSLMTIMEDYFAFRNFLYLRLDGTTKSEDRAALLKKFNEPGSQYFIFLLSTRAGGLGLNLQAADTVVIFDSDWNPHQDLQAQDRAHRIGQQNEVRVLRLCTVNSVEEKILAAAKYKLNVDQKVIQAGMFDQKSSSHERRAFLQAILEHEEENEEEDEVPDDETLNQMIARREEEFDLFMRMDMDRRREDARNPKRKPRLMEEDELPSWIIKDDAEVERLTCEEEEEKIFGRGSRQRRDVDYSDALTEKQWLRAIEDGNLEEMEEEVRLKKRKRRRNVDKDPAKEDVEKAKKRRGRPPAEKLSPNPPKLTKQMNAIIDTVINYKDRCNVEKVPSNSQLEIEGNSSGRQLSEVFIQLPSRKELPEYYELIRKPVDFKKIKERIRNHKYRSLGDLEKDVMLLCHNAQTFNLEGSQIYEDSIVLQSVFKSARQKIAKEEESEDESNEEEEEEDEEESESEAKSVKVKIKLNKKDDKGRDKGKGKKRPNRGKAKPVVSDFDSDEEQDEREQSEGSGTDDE

On to `COc1cc(O[C@@H]2C[C@@H]3CNc4nnc(-c5cc(F)cc(F)c5O)cc4N3C2)ccc1CN1CCN(c2ccc3c(c2)C(=O)N(C2CCC(=O)NC2=O)C3)CC1` (stereo partly drawn) [Example 12, 3-(6-(4-(4-(((6aR,8R)-2-(3,5-difluoro-2-hydroxyphenyl)-5,6,6a,7,8,9-hexahydropyrrolo[1′,2′:4,5]pyrazino[2,3-c]pyridazin-8-yl)oxy)-2-methoxybenzyl)piperazin-1-yl)-1-oxoisoindolin-2-yl)piperidine-2,6-dione], for which, at SMARCA4, the DC50 – broadly, the concentration giving 50% degradation – was less than 100 nM and the Dmax (as a rule, the largest share of the target that was removed) is more than 75%. Moreover, on SMARCA2, the DC50 was less than 100 nM and the Dmax was more than 75%.

Turning to `O=C1CCC(N2Cc3ccc(N4CCN(Cc5ccc(O[C@@H]6C[C@@H]7CNc8nnc(-c9cc(F)cc(F)c9O)cc8N7C6)cc5F)CC4)cc3C2=O)C(=O)N1` (stereo partly drawn) [Example 13, 3-(6-(4-(4-(((6aR,8R)-2-(3,5-difluoro-2-hydroxyphenyl)-5,6,6a,7,8,9-hexahydropyrrolo[1′,2′:4,5]pyrazino[2,3-c]pyridazin-8-yl)oxy)-2-fluorobenzyl)piperazin-1-yl)-1-oxoisoindolin-2-yl)piperidine-2,6-dione], on SMARCA4, the DC50 is less than 100 nM and the Dmax was more than 75%. Moreover, at SMARCA2, the DC50 was less than 100 nM and the Dmax is more than 75%.

`CC(C)c1cc(CN2CCN(c3ccc4c(c3)C(=O)N(C3CCC(=O)NC3=O)C4)CC2)ccc1O[C@@H]1C[C@@H]2CNc3nnc(-c4cc(F)cc(F)c4O)cc3N2C1` (stereo partly drawn) [Example 14, 3-(6-(4-(4-(((6aR,8R)-2-(3,5-difluoro-2-hydroxyphenyl)-5,6,6a,7,8,9-hexahydropyrrolo[1′,2′:4,5]pyrazino[2,3-c]pyridazin-8-yl)oxy)-3-isopropylbenzyl)piperazin-1-yl)-1-oxoisoindolin-2-yl)piperidine-2,6-dione]: the DC50 at SMARCA4 and at SMARCA2 was less than 100 nM each time. Further, the Dmax on SMARCA4 and on SMARCA2 was more than 75% throughout.

At SMARCA4, `O=C1CCC(N2Cc3ccc(N4CCN(Cc5ccc(O[C@@H]6C[C@@H]7CNc8nnc(-c9cc(F)cc(F)c9O)cc8N7C6)cc5C(F)(F)F)CC4)cc3C2=O)C(=O)N1` (stereo partly drawn) [Example 15, 3-(6-(4-(4-(((6aR,8R)-2-(3,5-difluoro-2-hydroxyphenyl)-5,6,6a,7,8,9-hexahydropyrrolo[1′,2′:4,5]pyrazino[2,3-c]pyridazin-8-yl)oxy)-2-(trifluoromethyl)benzyl)piperazin-1-yl)-1-oxoisoindolin-2-yl)piperidine-2,6-dione] had a DC50 of more than 1000 nM and a Dmax of 50 to 75%. Moreover, on SMARCA2, the DC50 was less than 100 nM and the Dmax was more than 75%.

On SMARCA4, `CC(C)c1cc(O[C@@H]2C[C@@H]3CNc4nnc(-c5cc(F)cc(F)c5O)cc4N3C2)ccc1CN1CCN(c2ccc3c(c2)C(=O)N(C2CCC(=O)NC2=O)C3)CC1` (stereo partly drawn) [Example 16, 3-(6-(4-(4-(((6aR,8R)-2-(3,5-difluoro-2-hydroxyphenyl)-5,6,6a,7,8,9-hexahydropyrrolo[1′,2′:4,5]pyrazino[2,3-c]pyridazin-8-yl)oxy)-2-isopropylbenzyl)piperazin-1-yl)-1-oxoisoindolin-2-yl)piperidine-2,6-dione] returned a DC50 of less than 100 nM and a Dmax of 50 to 75%. At SMARCA2, this compound gave a DC50 of less than 100 nM and a Dmax of 50 to 75%.

For the compound `Cc1cc(O[C@@H]2C[C@@H]3CNc4nnc(-c5cc(F)cc(F)c5O)cc4N3C2)cc(C)c1CN1CCN(c2ccc3c(c2)C(=O)N(C2CCC(=O)NC2=O)C3)CC1` (stereo partly drawn) [Example 17, 3-(6-(4-(4-(((6aR,8R)-2-(3,5-difluoro-2-hydroxyphenyl)-5,6,6a,7,8,9-hexahydropyrrolo[1′,2′:4,5]pyrazino[2,3-c]pyridazin-8-yl)oxy)-2,6-dimethylbenzyl)piperazin-1-yl)-1-oxoisoindolin-2-yl)piperidine-2,6-dione], the figures for the DC50 at SMARCA4 and on SMARCA2 were more than 1000 nM and less than 100 nM, respectively. Besides, the figures for the Dmax at SMARCA4 and at SMARCA2 were less than 50% and more than 75%, respectively.

Take `Cc1c(CN2CCN(c3ccc4c(c3)C(=O)N(C3CCC(=O)NC3=O)C4)CC2)ccc(O[C@@H]2C[C@@H]3CNc4nnc(-c5cc(F)cc(F)c5O)cc4N3C2)c1C` (stereo partly drawn) [Example 18, 3-(6-(4-(4-(((6aR,8R)-2-(3,5-difluoro-2-hydroxyphenyl)-5,6,6a,7,8,9-hexahydropyrrolo[1′,2′:4,5]pyrazino[2,3-c]pyridazin-8-yl)oxy)-2,3-dimethylbenzyl)piperazin-1-yl)-1-oxoisoindolin-2-yl)piperidine-2,6-dione]: at SMARCA4, the DC50 was less than 100 nM and the Dmax was more than 75%. Besides, at SMARCA2, the DC50 was less than 100 nM and the Dmax is more than 75%.

On SMARCA4, `Cc1cc(O[C@@H]2C[C@@H]3CNc4nnc(-c5cc(F)cc(Cl)c5O)cc4N3C2)ccc1CN1CCN(c2ccc3c(c2)C(=O)N(C2CCC(=O)NC2=O)C3)CC1` (stereo partly drawn) [Example 19, 3-(6-(4-(4-(((6aR,8R)-2-(3-chloro-5-fluoro-2-hydroxyphenyl)-5,6,6a,7,8,9-hexahydropyrrolo[1′,2′:4,5]pyrazino[2,3-c]pyridazin-8-yl)oxy)-2-methylbenzyl)piperazin-1-yl)-1-oxoisoindolin-2-yl)piperidine-2,6-dione] yielded a DC50 of less than 100 nM and a Dmax of 50 to 75%. At SMARCA2, the DC50 was less than 100 nM and the Dmax is more than 75%.

In the case of `Cc1cc(O[C@@H]2C[C@@H]3CNc4nnc(-c5cccc(C)c5O)cc4N3C2)ccc1CN1CCN(c2ccc3c(c2)C(=O)N(C2CCC(=O)NC2=O)C3)CC1` (stereo partly drawn) [Example 20, 3-(6-(4-(4-(((6aR,8R)-2-(2-hydroxy-3-methylphenyl)-5,6,6a,7,8,9-hexahydropyrrolo[1′,2′:4,5]pyrazino[2,3-c]pyridazin-8-yl)oxy)-2-methylbenzyl)piperazin-1-yl)-1-oxoisoindolin-2-yl)piperidine-2,6-dione], on SMARCA4, the DC50 was more than 1000 nM and the Dmax is less than 50%. Also, on SMARCA2, the DC50 is less than 100 nM and the Dmax is more than 75%.

As to `COc1cc(O[C@@H]2C[C@@H]3CNc4nnc(-c5cccc(Cl)c5O)cc4N3C2)ccc1CN1CCN(c2ccc3c(c2)C(=O)N(C2CCC(=O)NC2=O)C3)CC1` (stereo partly drawn) [Example 21, 3-(6-(4-(4-(((6aR,8R)-2-(3-chloro-2-hydroxyphenyl)-5,6,6a,7,8,9-hexahydropyrrolo[1′,2′:4,5]pyrazino[2,3-c]pyridazin-8-yl)oxy)-2-methoxybenzyl)piperazin-1-yl)-1-oxoisoindolin-2-yl)piperidine-2,6-dione], at SMARCA4, the DC50 was less than 100 nM and the Dmax is more than 75%. For the same compound, at SMARCA2, the DC50 was less than 100 nM and the maximal degradation (Dmax) was more than 75%.

On SMARCA4, `O=C1CCC(N2Cc3ccc(N4CCN(Cc5ccc(O[C@@H]6C[C@@H]7CNc8nnc(-c9cc(F)cc(Cl)c9O)cc8N7C6)cc5)CC4)cc3C2=O)C(=O)N1` (stereo partly drawn) [Example 22, 3-(6-(4-(4-(((6aR,8R)-2-(3-chloro-5-fluoro-2-hydroxyphenyl)-5,6,6a,7,8,9-hexahydropyrrolo[1′,2′:4,5]pyrazino[2,3-c]pyridazin-8-yl)oxy)benzyl)piperazin-1-yl)-1-oxoisoindolin-2-yl)piperidine-2,6-dione] showed a DC50 of less than 100 nM and a Dmax of more than 75%. On SMARCA2, this compound gave a half-maximal degradation concentration (DC50) of less than 100 nM and a Dmax of more than 75%.

The values above are taken from patent US20240165244A1 (Prelude Therapeutics Incorporated, priority 2022, published 2024).
